Laboratory results from US20220354949A1, “NOVEL COMPOUNDS” (XENIOPRO GmbH, priority 2018, published 2022).

Legend:
Format in all cases: cell-based
[1] = test system: Notch signaling (human Notch1 receptor, hNotch1ΔE, CSL luciferase reporter in HeLa cells); test: Notch reporter assay (dual luciferase, HeLa cells transfected with hNotch1ΔE); conditions: compounds and controls at 10 μM
From the text: The activation level of Notch signaling can be quantified in vitro reliably by measuring the expression levels of Notch specific target genes. This can be accomplished by the quantification of corresponding mRNA or protein of a particular Notch target gene. Alternatively, cells can be genetically modified to carry a luciferase gene as an artificial Notch target gene, which is expressed in dependence of Notch activity. In this setting, Notch signaling levels can be quantified by measuring the luciferase-derived bioluminescence values.
An according Notch-reporter assay, i.e. a luciferase-based luminescence readout, was used here to quantify the ability of the claimed compounds to augment Notch signaling in a cellular system. […] After 24 hours of transfection, the transfected cells were carefully detached from the dish using 0.5 mM EDTA in PBS and seeded into 96-well plates suitable for luminescence readouts (CORNING, #3610) at 10′000 cells per well. […] Directly after the lysis, first the Firefly and then the Renilla luciferase values were measured consecutively from the same well with a luminescence reader immediately after applying 15 μL per well each of the corresponding enzyme substrates needed to create the luminescence signals (Promega, Dual-Luciferase® Reporter Assay System, #E1910). […]

[2] = test system: HH cells (human cutaneous T-cell lymphoma cells); test: Proliferation assay (alamarBlue) with HH cells; conditions: 20 μM, relative to DMSO basis level 1.0, Table 60 (compounds disclosed in PCT/EP2018/054686)
From the text: (§1) The antiproliferative activities of compounds falling under formula (Ia), (Ib) and (Ic), respectively, were investigated on cells or cell lines originating from a disorder of the haematopoietic system, including the myeloid cell compartment and the lymphoid cell compartment (T-cells and B-cells), the neuroendocrine system, the cervix, the breast, the ovaries, the lung, the gastrointestinal tract, and the mucosal epithelium, as well as from the skin epithelium and from the muscle. To this end, HL-60 cells, NB-4 cells, HH cells, RPMI-8402 cells, TANOUE cells, TT cells, HeLa cells, MDA-MB-231 cells, FU-OV-1 cells, LOU-NH91 cells, 23132/87 cells, CAL-27 cells, BHY cells, SCC-25 cells, A-431 cells, human primary epidermal keratinocytes (HPEK), and C2C12 cells were seeded into 96-well plates suitable for fluorescence assays (CORNING #3598) at following initial cell numbers: 1000 cells per well for HL-60; 1000 cells per well for NB-4; 5000 cells per well for HH; 5000 cells per well for RPMI-8402; 1500 cells per well for TANOUE; 9000 cells per well for TT; 2000 cells per well for HeLa; 3000 cells per well for MDA-MB-231; 3000 cells per well for FU-OV-1; 4000 cells per well for LOU-NH91; 2000 cells per well for 23132/87; 2000 cells per well for CAL-27; 1500 cells per well for BHY; 1500 cells per well for SCC-25; 700 cells per well for A-431; 1000 cells per well for HPEK; 500 cells per well for C2C12. The cells were treated with compounds at indicated final concentrations (diluted from the 1000× stock-solutions in DMSO to a final DMSO concentration of 0.1% v/v in H2O (Water For Injection, WFI, Fisherscientific #10378939)) or with the empty carrier DMSO at 0.1% v/v as control for 5 days. At day 5 after starting the treatments the cells were subjected to the alamarBlue® Proliferation Assay (Bio-Rad Serotec GmbH, BUF012B) according to the protocol of the manufacturer. The readout was taken with a multi-well plate-reader in the fluorescence mode with applying a filter for excitation at 560 nm (band width 10 nm) and for emission at 590 nm (band width 10 nm). Control treatments for growth inhibition with commercial compounds such as Methotrexate (MTREX) and Resveratrol (RES) were included on every plate. Some of the test compounds of the present invention were obtained and applied as their salts. According cases are indicated in the column “Specification” in Table 55 to Table 92 and by their sum formula in Table 93.
(§2) The assays were performed in duplicate or more replicates of independent single experiments each containing a six-fold replicate for every condition. For every individual plate, the measured fluorescence intensity values of the conditions with compound treatment were normalized against the corresponding equally weighted arithmetic mean of the fluorescence intensity values of the six DMSO treated control wells in order to obtain the relative values to a baseline level of 1.0.
(§3) Two independent outlier analyses were performed according to the methods by Peirce and Chauvenet (Ross, Journal of Engineering Technology 2003, 1-12). Outliers confirmed by at least one of the methods were excluded from the calculations but not more than one value out of six per compound within a single experiment. The weighted arithmetic mean (here abbreviated as AVEw) for each compound was calculated from the normalized values over all independent replicates of the single experiments comprising the six replicates each. The corresponding standard deviation for the weighted arithmetic mean was calculated according to the method described by Bronstein et al. (Bronstein, Semendjajew, Musiol, Müihlig, Taschenbuch der Mathematik, 5th edition 2001 (German), publisher: Verlag Harri Deutsch, Frankfurt am Main and Thun) and was combined with the Gauß' error propagation associated with the performed calculation for the normalization. The resulting standard deviation is herein referred to as “combined standard deviation”. […]

[3] = test system: MDA-MB-231 cells (human breast carcinoma cells); test: Proliferation assay (alamarBlue) with MDA-MB-231 cells; conditions: Homo sapiens, compound at 20 μM, Table 69 (novel compounds), read-out: Activity Range: weighted arithmetic mean (AVEw) of normalized fluorescence intensity relative to DMSO basis level 1.0
From the text: as §1, §2, §3

[4] = test system: TANOUE cells (human B cell leukemia cells); test: Proliferation assay (alamarBlue) with TANOUE cells; conditions: Homo sapiens, B-cell, compound at 20 μM, Table 63 (novel compounds), read-out: Activity Range: weighted arithmetic mean (AVEw) of normalized fluorescence intensity relative to DMSO basis level 1.0
From the text: as §1, §2, §3

Row | SMILES | Activity Range: weighted arithmetic mean (AVEw) of double-normalized Notch-reporter luminescence, relative to DMSO basis level of 1.0 [1] | Activity Range: weighted arithmetic mean (AVEw) of normalized fluorescence intensity, proliferation assay with HH cells [2] | activity at 20 µM [3] [%] | activity at 20 µM [4] [%]
1 | C[C@H](NC(=O)Cc1cc(F)cc(F)c1)C(=O)N[C@H](C(=O)OC(C)(C)C)c1ccccc1 [DAPT] | 0.1 ± 0.0 |  |  | 
2 | NS(=O)(=O)C#Cc1ccccc1 [PES] |  | 0.6 ± 0.1 |  | 
3 | CN(C)C(c1ccc(Oc2ccc(C34CC5CC(CC(C5)C3)C4)cc2)cc1)C(F)(F)F (stereo not shown) [XPW-0042, 1-(4-(4-((3r,5r,7r)-adamantan-1-yl)phenoxy)phenyl)-2,2,2-trifluoro-N,N-dimethylethan-1-amine] |  |  | 80 to 90 | 80 to 90
4 | CN(O)C(c1ccc(Oc2ccc(C34CC5CC(CC(C5)C3)C4)cc2)cc1)C(F)(F)F (stereo not shown) [XPW-0182, N-(1-(4-(4-((3r,5r,7r)-adamantan-1-yl)phenoxy)phenyl)-2,2,2-trifluoroethyl)-N-methyl hydroxylamine] |  |  | 40 to 60 | 40 to 60
5 | CN(C)C(C#N)c1ccc(Oc2ccc(C3CCCCC3)cc2)cc1 (stereo not shown) [XPW-0314, 2-(4-(4-cyclohexylphenoxy)phenyl)-2-(dimethylamino)acetonitrile] | 2.0 ≤ AVEw |  |  | 40 to 60
6 | COCCc1ccc(Oc2ccc(C(=O)N(C)O)cc2)cc1 [XPW-0675, N-hydroxy-4-(4-(2-methoxyethyl)phenoxy)-N-methylbenzamide] |  |  | 40 to 60 | 40 to 60
7 | N#CN=C(N)c1ccc(Oc2ccc(C3CCCCC3)cc2)nc1 [XPW-0832, N′-cyano-6-(4-cyclohexylphenoxy)nicotinimidamide] |  |  | 70 to 80 | 70 to 80
8 | CC(C)(C)[S+]([O-])NC(c1ccc(Oc2ccc(C34CC5CC(CC(C5)C3)C4)cc2)cc1)C(F)(F)F (stereo not shown) [XPW-0902, N-(1-(4-(4-((3r,5r,7r)-adamantan-1-yl)phenoxy)phenyl)-2,2,2-trifluoroethyl)-2-methylpropane-2-sulfinamide] |  |  | 0 to 20 | 0 to 20
9 | O=C(c1ccc(Oc2ccc(C3CCCCC3)cc2)nc1)N1CCOCC1 [XPW-2890, (6-(4-cyclohexylphenoxy)pyridin-3-yl)(morpholino)methanone] |  |  | 40 to 60 | 70 to 80
10 | NC1(c2ccc(Oc3ccc(C45CC6CC(CC(C6)C4)C5)cc3)nc2)COC1 [XPW-3052] |  |  | 60 to 70 | 70 to 80
11 | CN(C(c1ccc(Oc2ccc(C34CC5CC(CC(C5)C3)C4)cc2)cc1)C(F)(F)F)[S+]([O-])C(C)(C)C (stereo not shown) [XPW-4642, N-(1-(4-(4-((3r,5r,7r)-adamantan-1-yl)phenoxy)phenyl)-2,2,2-trifluoroethyl)-N,2-dimethylpropane-2-sulfinamide] |  |  | 60 to 70 | 
